Holding throughout (format): cell-based
The subject of one assay is MDA-MB-468. The experiment in a line: Cell growth inhibition assay (CellTiter-Glo), breast cancer cell line MDA-MB-468. Conditions: MDA-MB-468 cells, 96 hours. Put shortly:
(§1)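 Cells seeded at 5,000/well (NCI-N87) or 10,000/well (MDA-MB-468) and exposed to serially diluted compounds for 96 h at 37 °C, NCI-N87 under 5% CO2 and MDA-MB-468 in air. Viability read by CellTiter-Glo luminescence; cell-free wells served as negative control and 0.1% DMSO wells as positive control.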
A general note: ATP-based viability assays read luminescence as a measure of living cells.

A further assay has as its system NCI-N87. The experiment in a line: Cell growth inhibition assay (CellTiter-Glo), stomach cancer cell line NCI-N87. As to conditions: NCI-N87 cells, 96 hours. Put shortly:
as §1

The target in the next assay is T1, STAT3 (Homo sapiens, UniProt P40763).
T1 construct: plasmid pSTAT3-TA-luc), which contains a stably operating STAT3 promoter; endogenous in cells
The experiment in a line: STAT3 reporter gene (luciferase) assay in LNCaP stable cell line stimulated with IL-6. Conditions: LNCaP stable cell line (pSTAT3-TA-luc), IL-6 10 ng/mL, 24 hours. Put shortly:
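LNCaP cells stably carrying pSTAT3-TA-luc, in RPMI1640 with 3% DCC-FBS, cultured 24 hours, then treated with compound at various concentrations plus IL-6 (final 10 ng/mL) for 24 hours at 37° C. Luciferase measured in lysates; parallel plate read for viability by CellTiter-Glo.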
On the technique in general: Reporter assays use an easily measured gene product as a stand-in for the process of interest.

The next assay deals with T2, STAT1 (Homo sapiens, UniProt P42224).
T2 construct: pGL4-STAT1-TA-luc), which contains a stably operating STAT1 promoter; endogenous in cells
T2 sequence (P42224 1-750): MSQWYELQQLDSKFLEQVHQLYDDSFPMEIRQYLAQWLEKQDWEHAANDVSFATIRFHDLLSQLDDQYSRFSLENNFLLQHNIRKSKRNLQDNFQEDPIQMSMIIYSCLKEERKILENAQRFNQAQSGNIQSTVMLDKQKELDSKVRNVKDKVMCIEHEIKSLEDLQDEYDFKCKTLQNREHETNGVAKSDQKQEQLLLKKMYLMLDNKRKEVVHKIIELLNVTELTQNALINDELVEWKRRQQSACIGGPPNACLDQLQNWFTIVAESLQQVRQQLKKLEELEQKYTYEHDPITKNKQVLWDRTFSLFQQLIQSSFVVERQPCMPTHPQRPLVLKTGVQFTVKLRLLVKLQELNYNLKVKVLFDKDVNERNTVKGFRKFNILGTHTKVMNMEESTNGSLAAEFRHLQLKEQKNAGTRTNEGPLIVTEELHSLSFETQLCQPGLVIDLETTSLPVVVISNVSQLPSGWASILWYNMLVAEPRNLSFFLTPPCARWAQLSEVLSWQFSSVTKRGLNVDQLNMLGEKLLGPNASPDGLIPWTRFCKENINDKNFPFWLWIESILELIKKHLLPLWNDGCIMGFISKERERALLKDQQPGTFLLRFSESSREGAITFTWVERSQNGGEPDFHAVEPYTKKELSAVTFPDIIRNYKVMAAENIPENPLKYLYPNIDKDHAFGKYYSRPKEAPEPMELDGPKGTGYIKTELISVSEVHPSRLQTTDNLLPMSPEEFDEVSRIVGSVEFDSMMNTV
The experiment in a line: STAT1 reporter gene (luciferase) assay in U2OS stable cell line stimulated with IFN-γ. Conditions: U2OS stable cell line (pGL4-STAT1-TA-luc), IFN-γ 50 ng/mL, 8 hours; read-out: IC50 (μM) pSTAT1. On the procedure: 1-2) Experiment on the Inhibition of STAT1 Activity
A human osteosarcoma cell line (U2OS stable cell line; pGL4-STAT1-TA-luc), which contains a stably operating STAT1 promoter, was cultured in McCoy 5′A medium (Cat No. 16600, Life Technologies) containing 10% FBS (Cat No. SH30396, Thermo Scientific) and 1000 μg/mL G418 solution (Cat No. 04 727 894 001, Roche). The reporter gene assay using U2OS stable cell line was performed in McCoy 5′A medium containing 10% FBS without G-418 solution. U2OS stable cells were plated in two (2) white 96-well plates with 25,000 cells/50 μL in each well. […] The plates were observed under microscope and drug precipitation and particular findings were investigated and recorded.
The luciferase assay and the cell viability assay were performed respectively with one of two plates. […] After shaking the plate for 30 minutes, luciferase activities of each well were measured in a PHERAstar™ microplate reader (BMG LABTECH) using a luciferase assay system (Cat No. E1501, Promega). For the cell viability assay, the 96-well plate was placed at room temperature for 30 minutes, added with 20 μL/well of CellTiter-Glo solution (Cat No. G7573, Promega), and shaken for 10 minutes in order to measure cytotoxicity caused by the compounds listed in Examples with a PHERAstar™ microplate reader (BMG LABTECH). […]

As a reminder, the IC50 is the concentration that gives 50% inhibition.

T1 sequence (P40763 whole entry): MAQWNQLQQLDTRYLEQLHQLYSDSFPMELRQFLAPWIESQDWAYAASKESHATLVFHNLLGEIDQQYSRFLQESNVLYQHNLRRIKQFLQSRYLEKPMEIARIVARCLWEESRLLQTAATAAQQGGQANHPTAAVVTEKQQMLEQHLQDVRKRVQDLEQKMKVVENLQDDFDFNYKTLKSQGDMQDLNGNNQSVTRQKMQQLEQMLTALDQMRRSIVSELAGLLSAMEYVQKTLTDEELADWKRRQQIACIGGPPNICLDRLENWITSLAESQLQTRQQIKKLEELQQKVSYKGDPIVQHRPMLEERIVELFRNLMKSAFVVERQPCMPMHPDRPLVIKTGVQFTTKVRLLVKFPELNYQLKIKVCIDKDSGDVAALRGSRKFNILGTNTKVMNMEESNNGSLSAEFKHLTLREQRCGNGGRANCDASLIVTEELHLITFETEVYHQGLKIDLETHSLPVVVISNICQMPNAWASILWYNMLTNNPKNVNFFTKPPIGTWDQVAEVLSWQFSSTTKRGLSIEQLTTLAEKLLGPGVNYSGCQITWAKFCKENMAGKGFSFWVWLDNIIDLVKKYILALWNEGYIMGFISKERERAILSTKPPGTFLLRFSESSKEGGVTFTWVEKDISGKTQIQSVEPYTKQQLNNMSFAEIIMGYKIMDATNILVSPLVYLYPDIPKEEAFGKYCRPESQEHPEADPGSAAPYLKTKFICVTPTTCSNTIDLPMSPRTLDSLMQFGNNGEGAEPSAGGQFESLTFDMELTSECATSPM

As for “N-(2-chloro-6-(5-chloro-2-methylphenoxy)pyridin-4-yl)-4-(methylsulfonyl)-3,4-dihydro-2H-thieno[3,2-g]chromene-7-carboxamide [Example 37]”, the IC50 is 0.0047 µM in the assay on MDA-MB-468, 0.0095 µM in the assay with NCI-N87, 0.0062 µM on STAT3 and over 50 µM on STAT1.

“tert-butyl 7-((2-chloro-6-(4-chlorophenoxy)pyridin-4-yl)carbamoyl)-1-(methylsulfonyl)-2,3-dihydrothieno[2,3-g]quinoxaline-4(1H)-carboxylate [Example 5]”: the IC50 in the assay on NCI-N87 was 0.72 µM; on STAT3, 0.76 µM; on STAT1, over 50 µM.

Source of the values: patent US10633394B2, “Heterocyclic derivatives and use thereof” (C & C RESEARCH LABORATORIES, priority 2014, dated 2020).
